Measurements published in the supplement of paper PMC13380429.

Legend:
Settings in all cases: 72 h
Caco-2 [1] = test: cell viability relative to DMSO; higher = less toxic
Calu-3 [2] = test: as above
HepG2 [3] = test: as above
U2OS [4] = test: as above
Vero E6 [5] = test: as above
Caco-2 [6] = test: relative viability EC50 (midpoint between 100% and the lowest measured viability); higher = less toxic
Calu-3 [7] = test: as above
HepG2 [8] = test: as above
U2OS [9] = test: as above
Vero E6 [10] = test: as above
Caco-2 [11] = test: drug sensitivity score (DSS) for viability; higher = more toxic; extreme values may be limits of the assay
Calu-3 [12] = test: as above
HepG2 [13] = test: as above
U2OS [14] = test: as above
Vero E6 [15] = test: as above

Row | Compound | cell viability (Caco-2 [1]; 1 nM) [%] | cell viability (Caco-2 [1]; 10 nM) [%] | cell viability (Caco-2 [1]; 100 nM) [%] | cell viability (Caco-2 [1]; 1000 nM) [%] | cell viability (Caco-2 [1]; 10000 nM) [%] | cell viability (Calu-3 [2]; 1 nM) [%] | cell viability (Calu-3 [2]; 10 nM) [%] | cell viability (Calu-3 [2]; 100 nM) [%] | cell viability (Calu-3 [2]; 1000 nM) [%] | cell viability (Calu-3 [2]; 10000 nM) [%] | cell viability (HepG2 [3]; 1 nM) [%] | cell viability (HepG2 [3]; 10 nM) [%] | cell viability (HepG2 [3]; 100 nM) [%] | cell viability (HepG2 [3]; 1000 nM) [%] | cell viability (HepG2 [3]; 10000 nM) [%] | cell viability (U2OS [4]; 1 nM) [%] | cell viability (U2OS [4]; 10 nM) [%] | cell viability (U2OS [4]; 100 nM) [%] | cell viability (U2OS [4]; 1000 nM) [%] | cell viability (U2OS [4]; 10000 nM) [%] | cell viability (Vero E6 [5]; 1 nM) [%] | cell viability (Vero E6 [5]; 10 nM) [%] | cell viability (Vero E6 [5]; 100 nM) [%] | cell viability (Vero E6 [5]; 1000 nM) [%] | cell viability (Vero E6 [5]; 10000 nM) [%] | relative viability EC50 (Caco-2 [6]) [µM] | relative viability EC50 (Calu-3 [7]) [µM] | relative viability EC50 (HepG2 [8]) [µM] | relative viability EC50 (U2OS [9]) [µM] | relative viability EC50 (Vero E6 [10]) [µM] | drug sensitivity score (Caco-2 [11]) | drug sensitivity score (Calu-3 [12]) | drug sensitivity score (HepG2 [13]) | drug sensitivity score (U2OS [14]) | drug sensitivity score (Vero E6 [15])
1 | CCC(C)(Oc1ccc(C2(c3ccc(OC(C)(CC)C(=O)O)cc3)CCCCC2)cc1)C(=O)O (stereo not given) [clinofibrate] | 103 | 98.2 | 99 | 105 | 104 | 96.1 | 93.7 | 99.9 | 102 | 98.9 | 93.9 | 106 | 92.6 | 120 | 108 | 96.9 | 98.3 | 102 | 95.6 | 94.9 | 96.4 | 101 | 96 | 99.2 | 107 | > 10 | > 10 | > 10 | > 10 | > 10 | 0 | 0 | 0 | 0 | 0
2 | O=C(O)c1ccccc1C(=O)Nc1ccc(-c2ccccc2)cc1 [kartogenin] | 99.2 | 90.6 | 89.7 | 94.2 | 93.7 | 98.2 | 101 | 105 | 102 | 103 | 98.4 | 98.4 | 92.7 | 97.3 | 106 | 103 | 104 | 100 | 98.6 | 100 | 103 | 99 | 105 | 97.7 | 98.1 | > 10 | > 10 | > 10 | > 10 | > 10 | 0 | 0 | 0 | 0 | 0
3 | N#Cc1ccc(N2CCN(C(=O)COc3ccc4[nH]cc(CCN)c4c3)CC2)cc1 [donitriptan] | 92.4 | 88.7 | 89 | 97.1 | 104 | 89 | 103 | 107 | 106 | 111 | 102 | 105 | 94.1 | 102 | 94.8 | 101 | 102 | 99.4 | 99.7 | 107 | 95.1 | 101 | 98 | 98.5 | 107 | > 10 | > 10 | > 10 | > 10 | > 10 | 0 | 0 | 0 | 0 | 0
4 | O=C(c1ccccc1)c1ccc2n1CCC2C(=O)O (stereo not given) [ketorolac] | 103 | 123 | 110 | 98.3 | 91.8 | 95.7 | 109 | 110 | 99.5 | 104 | 102 | 107 | 113 | 97.7 | 87.2 | 99.5 | 105 | 104 | 96.6 | 92.9 | 102 | 104 | 108 | 105 | 96.1 | > 10 | > 10 | > 10 | > 10 | > 10 | 0 | 0 | 0.2 | 0 | 0
5 | CCCC(CCC)C(=O)NCc1ccc2c(cnn2-c2ccccc2OC)c1 [M-25] | 99.2 | 102 | 97.1 | 95.3 | 79.6 | 113 | 95.5 | 115 | 101 | 102 | 99.8 | 108 | 101 | 105 | 87 | 102 | 100 | 99.5 | 100 | 95.1 | 94.5 | 94.2 | 96.6 | 91.5 | 88.8 | > 10 | > 10 | > 10 | > 10 | > 10 | 1.2 | 0 | 0 | 0 | 0
6 | O=C(O)c1ccc(OCCn2ccnc2)cc1 [dazoxiben] | 108 | 92.7 | 114 | 98.2 | 101 | 101 | 97.7 | 103 | 102 | 97.7 | 104 | 103 | 84.5 | 102 | 89.8 | 99.8 | 96.5 | 103 | 91.4 | 103 | 96.3 | 101 | 96.9 | 103 | 110 | > 10 | > 10 | > 10 | > 10 | > 10 | 0 | 0 | 0 | 0 | 0
7 | O=C(Nc1cccnn1)N1CCC(=Cc2cccc(Oc3ccc(C(F)(F)F)cn3)c2)CC1 | 100 | 104 | 102 | 96.4 | 81.4 | 104 | 95.3 | 92 | 95.3 | 84.9 | 99.9 | 97.5 | 106 | 93.3 | 34.1 | 94.3 | 96.2 | 96.3 | 97.9 | 91.2 | 96.1 | 93.3 | 93.2 | 87.3 | 96.1 | > 10 | > 10 | 2.33 | > 10 | > 10 | 0.9 | 0.2 | 4.7 | 0 | 0
8 | Cc1ccc(Cl)c(OC[C@H](O)CNC(C)C)c1 [1-(2-chloro-5-methylphenoxy)-3-(isopropylamino)-2-propanol] | 95.1 | 101 | 99.1 | 91.1 | 94.8 | 96.6 | 101 | 103 | 108 | 102 | 93.5 | 100 | 108 | 104 | 103 | 104 | 97.2 | 101 | 106 | 101 | 104 | 103 | 95.9 | 104 | 92.8 | > 10 | > 10 | > 10 | > 10 | > 10 | 0 | 0 | 0 | 0 | 0
9 | O=C1N=C2SCCN2C(=O)C1Cc1ccc(Cl)cc1 (stereo not given) [nuclomedone] | 93.1 | 96.5 | 91.9 | 92.2 | 94.9 | 91.5 | 104 | 95.5 | 99.9 | 90.5 | 93.7 | 89.1 | 95.3 | 96.4 | 92 | 98.4 | 97.6 | 95.6 | 95.6 | 96.4 | 96.9 | 95.5 | 95.1 | 104 | 93.4 | > 10 | > 10 | > 10 | > 10 | > 10 | 0 | 0 | 0 | 0 | 0
10 | O=C(Nc1ccccc1F)N[C@H]1N=C(c2ccccc2)c2ccccc2NC1=O [RSV604] | 92.5 | 107 | 97.2 | 102 | 85.2 | 94.2 | 90.5 | 99.2 | 102 | 89.8 | 109 | 110 | 95.9 | 96.5 | 109 | 98.5 | 98.5 | 98.5 | 105 | 100 | 95.1 | 101 | 95.8 | 95.3 | 92 | > 10 | > 10 | > 10 | > 10 | > 10 | 0.1 | 0 | 0 | 0 | 0
11 | O=C(Nc1cc(C(F)(F)F)cc(C(F)(F)F)c1)c1cc(Cl)ccc1O [IKK-2-inhibitor-V] | 95.9 | 89.4 | 95.3 | 29.2 | 14.5 | 98.4 | 107 | 98.3 | 99.8 | 13.8 | 99.6 | 99.6 | 112 | 17.2 | 6.8 | 95.7 | 101 | 89.7 | 82.9 | 11.2 | 100 | 90.5 | 98.8 | 52.6 | 16.3 | 0.436 | 3.14 | 0.477 | 1.77 | 0.876 | 13.8 | 4.8 | 14.7 | 7.7 | 10.3
12 | CCc1c(C(=O)NCCc2ccc(N3CCCCC3)cc2)[nH]c2ccc(Cl)cc12 | 98.7 | 94 | 95.2 | 90.6 | 91 | 95.8 | 97.5 | 93.4 | 100 | 101 | 97.4 | 107 | 92.3 | 105 | 99.4 | 98 | 93.9 | 98.8 | 95.2 | 98.6 | 97.6 | 96.4 | 105 | 100 | 96 | > 10 | > 10 | > 10 | > 10 | > 10 | 0 | 0 | 0 | 0 | 0
13 | CN(C)C(=O)n1nnnc1Cc1ccc(-c2ccccc2)cc1 | 106 | 106 | 100 | 106 | 40.1 | 102 | 98 | 95.2 | 111 | 44.9 | 125 | 108 | 110 | 100 | 43.3 | 102 | 105 | 102 | 104 | 13.6 | 107 | 106 | 103 | 102 | 29.1 | 3.62 | 3.91 | 3.19 | 3.44 | 3.32 | 2.8 | 2.3 | 3 | 4.5 | 3.7
14 | O=P(O)(O)CN(CCN(CP(=O)(O)O)CP(=O)(O)O)CP(=O)(O)O [EDTMP] | 98.2 | 95.5 | 95.4 | 105 | 104 | 105 | 100 | 96 | 97.1 | 99 | 88.5 | 96.3 | 96.5 | 92.2 | 106 | 99.8 | 95.9 | 102 | 97.8 | 104 | 96.1 | 99.8 | 102 | 98.2 | 91 | > 10 | > 10 | > 10 | > 10 | > 10 | 0 | 0 | 0 | 0 | 0
